# Source: the supplement of paper PMC13386468
# How the values were obtained:
# Settings in all cases: assay detail: Kinobeads competition in P. falciparum blood-stage lysate
# UniProt Q8IIW6 = test: apparent dissociation constant (Kd app) from Kinobeads competition
# UniProt Q8IAM4 = test: as above
# UniProt Q9U0K8 = test: as above
# UniProt Q8IJR8 = test: as above
# UniProt Q8I5H9 = test: as above
# UniProt Q8IAZ3 = test: as above
# UniProt C0H4R8 = test: as above
# UniProt O77344 = test: as above
# UniProt Q8I535 = test: as above
# UniProt C6KSQ1 = test: as above
# UniProt Q8IKQ9 = test: as above
# UniProt Q8I442 = test: as above
# UniProt Q7KQK0 = test: as above
# UniProt Q8I5E3 = test: as above
# UniProt Q8IEL1 = test: as above
# UniProt Q8I5D4 = test: as above
# A0A144A0U7 = test: as above
# UniProt C6KSZ6 = test: as above
# UniProt Q8IE41 = test: as above
# UniProt Q7K6A8 = test: IC50 for competition of protein binding to Kinobeads
# UniProt Q8I6U4 = test: as above
# UniProt Q8I4Q5 = test: as above
# UniProt Q8III3 = test: as above
# UniProt Q8IC05 = test: as above
# UniProt Q8IIH7 = test: as above
# UniProt C0H5J2 = test: as above
# UniProt Q8IIK8 = test: as above
# UniProt Q8I6T2 = test: as above
# UniProt C0H5A0 = test: as above
# UniProt Q8IEF5 = test: as above
# UniProt Q8I3Q6 = test: as above
# UniProt Q8IDJ4 = test: as above
# UniProt Q8IBJ1 = test: as above
# UniProt Q8I0W9 = test: as above
# UniProt Q8IDG9 = test: as above
# UniProt Q8ILX1 = test: as above
# UniProt Q8IEE5 = test: as above
# UniProt O96212 = test: as above
# 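Throughout, for IC50: native unpurified kinases from lysate captured on beads bearing immobilized kinase inhibitors, with bead-bound kinases quantified by mass spectrometry across compound doses.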
# Chain of UniProt Q8I6U4 (Q8I6U4 whole entry): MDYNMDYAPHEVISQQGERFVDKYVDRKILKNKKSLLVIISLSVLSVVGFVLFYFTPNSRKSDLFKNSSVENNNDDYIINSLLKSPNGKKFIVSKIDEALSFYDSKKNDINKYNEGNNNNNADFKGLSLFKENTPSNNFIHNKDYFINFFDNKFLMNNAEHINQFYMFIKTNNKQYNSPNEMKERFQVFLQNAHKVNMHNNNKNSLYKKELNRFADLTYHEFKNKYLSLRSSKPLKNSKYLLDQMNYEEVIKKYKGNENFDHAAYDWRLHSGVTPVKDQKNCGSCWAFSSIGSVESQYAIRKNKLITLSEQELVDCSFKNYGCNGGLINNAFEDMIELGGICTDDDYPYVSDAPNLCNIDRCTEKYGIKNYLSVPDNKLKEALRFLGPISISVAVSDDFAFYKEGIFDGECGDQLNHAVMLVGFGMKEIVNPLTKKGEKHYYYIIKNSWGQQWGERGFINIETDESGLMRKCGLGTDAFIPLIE
smiles,measurement,setting,value
O=c1[nH]c2ccc(Cl)cc2c(NC2CN3CCC2CC3)c1-c1nc2ccccc2[nH]1 (stereo not drawn) [CHIR-124],Kd,UniProt Q8IIW6,0.181 µM
same,Kd,UniProt Q8IAM4,7.66 µM
same,Kd,UniProt Q9U0K8,4.29 µM
same,Kd,UniProt Q8IJR8,0.314 µM
same,Kd,UniProt Q8I5H9,10.3 µM
same,Kd,UniProt Q8IAZ3,9.02 µM
same,Kd,UniProt C0H4R8,4.84 µM
same,Kd,UniProt O77344,1.28 µM
same,Kd,UniProt Q8I535,0.0455 µM
same,Kd,UniProt C6KSQ1,0.168 µM
same,Kd,UniProt Q8IKQ9,15.3 µM
same,Kd,UniProt Q8I442,7.1 µM
same,Kd,UniProt Q7KQK0,0.621 µM
same,Kd,UniProt Q8I5E3,7.57 µM
same,Kd,UniProt Q8IEL1,1.9 µM
same,Kd,UniProt Q8I5D4,5.65 µM
same,Kd,A0A144A0U7,7.53 µM
same,Kd,UniProt C6KSZ6,1.4 µM
same,Kd,UniProt Q8IE41,0.239 µM
same,IC50,UniProt Q7K6A8,> 20 µM
same,IC50,UniProt Q8I6U4,> 20 µM
same,IC50,UniProt Q8I4Q5,> 20 µM
same,IC50,UniProt Q8III3,> 20 µM
same,IC50,UniProt Q8IC05,> 20 µM
same,IC50,UniProt Q8IIH7,> 20 µM
same,IC50,UniProt C0H5J2,> 20 µM
same,IC50,UniProt Q8IIK8,> 20 µM
same,IC50,UniProt Q8I6T2,> 20 µM
same,IC50,UniProt C0H5A0,> 20 µM
same,IC50,UniProt Q8IEF5,> 20 µM
same,IC50,UniProt Q8I3Q6,> 20 µM
same,IC50,UniProt Q8IDJ4,> 20 µM
same,IC50,UniProt Q8IBJ1,> 20 µM
same,IC50,UniProt Q8I0W9,> 20 µM
same,IC50,UniProt Q8IDG9,> 20 µM
same,IC50,UniProt Q8ILX1,> 20 µM
same,IC50,UniProt Q8IEE5,> 20 µM
same,IC50,UniProt O96212,> 20 µM
